Test results from publication PMC9330042, “Synthesis and Biological Studies of Novel Aminophosphonates and Their Metal Carbonyl Complexes (Fe, Ru)” (International Journal of Molecular Sciences, 2022).

system: V79 cell line; experiment: MTT cytotoxicity test; assay type: cell-based, Cricetulus griseus; details: V79 cells, 24 h, tested range 100–1000 µM; viability below 70% indicates cytotoxicity
Experimental: Cell viability below 70% indicates cytotoxicity.
V79 cells (Cricetulus griseus lung fibroblast cell line) (European Collection of Cell Culture) were grown in MEM (PAN-Biotech, Aidenbach, Germany) containing 2 mM glutamine (Sigma Aldrich, Darmstadt, Germany)), 1% non-essential amino acids (Biological Industries, Cromwell, U.S), 10% FBS (Biowest, Nuaillé, France), and 100 units/mL penicillin and […] (Biological Industries, Cromwell, U.S). Cells were plated and grown in an incubator at 37 °C with 5% CO2 to 80% confluence before the initiation of the assay.
V79 cells were seeded at a density of 1 × 10^4 cells per well and were incubated for 24 h. After 24 h, the medium was removed from the wells, and cells were exposed to the compound solutions over a range of concentrations or nothing but culture medium (blank control). Cells were further incubated for an additional 24 h. At the end, the medium was removed and MTT solution (0.75 mg/mL) was added. Next, plates were incubated in the dark for 2 h at 37 °C. Then, the MTT solution was removed and DMSO was added to each well. Plates were incubated for 10 min at room temperature. The absorbance at 570 nm was measured on a microplate reader. Cell viability was expressed as a percentage of the control values (blank).

Structure (SMILES) | Cytotoxicity (in words)
CCOP(=O)(Cc1cccc(CN)c1)OCC [8b] | Non-toxic
CCOP(=O)(Cc1ccc(CN)cc1)OCC [8c] | Non-toxic
CCOP(=O)(Cc1ccccc1CN)OCC [8a] | Non-toxic
